ChEMBL document CHEMBL1129223, “1-Oxo-3-aryl-1H-indene-2-carboxylic acid derivatives as selective inhibitors of fibroblast growth factor receptor-1 tyrosine kinase” (Bioorg Med Chem Lett, 1997)

Key:
[1] = molecular target: T1, Fibroblast growth factor receptor (Homo sapiens, UniProt P22607+P11362+P22455+P21802); experiment: Inhibitory activity against fibroblast growth factor receptor (FGFr); assay type: protein assay
[2] = molecular target: Platelet-derived growth factor receptor (Homo sapiens) (UniProt P09619+P16234); experiment: Inhibitory activity against platelet-derived growth factor receptor (PDGFr) at 50 uM
[3] = molecular target: T2, Proto-oncogene tyrosine-protein kinase Src (Homo sapiens, UniProt P12931); experiment: Inhibitory activity against c-src tyrosine kinase
T2 sequence (P12931 2-536 limits assumed): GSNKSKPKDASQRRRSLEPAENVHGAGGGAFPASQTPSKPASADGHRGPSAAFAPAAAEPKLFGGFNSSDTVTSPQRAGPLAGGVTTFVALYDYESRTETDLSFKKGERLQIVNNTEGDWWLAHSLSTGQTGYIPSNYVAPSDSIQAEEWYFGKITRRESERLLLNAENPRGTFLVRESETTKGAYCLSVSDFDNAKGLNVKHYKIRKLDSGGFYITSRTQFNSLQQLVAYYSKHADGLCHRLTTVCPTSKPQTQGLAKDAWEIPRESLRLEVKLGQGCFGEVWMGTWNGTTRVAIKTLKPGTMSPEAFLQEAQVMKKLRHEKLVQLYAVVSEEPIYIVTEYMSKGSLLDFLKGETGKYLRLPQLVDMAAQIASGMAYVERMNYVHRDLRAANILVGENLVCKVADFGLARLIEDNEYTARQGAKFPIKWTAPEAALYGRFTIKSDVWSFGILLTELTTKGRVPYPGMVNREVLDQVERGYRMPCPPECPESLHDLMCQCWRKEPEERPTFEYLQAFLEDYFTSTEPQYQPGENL

[4] = molecular target: T2, Proto-oncogene tyrosine-protein kinase Src; experiment: Inhibitory activity against c-src tyrosine kinase at 50 uM
[5] = molecular target: T1, Fibroblast growth factor receptor; experiment: Inhibitory activity against fibroblast growth factor receptor (FGFr) at 50 uM; assay type: protein assay

T1 sequence (P11362 whole entry, looked up): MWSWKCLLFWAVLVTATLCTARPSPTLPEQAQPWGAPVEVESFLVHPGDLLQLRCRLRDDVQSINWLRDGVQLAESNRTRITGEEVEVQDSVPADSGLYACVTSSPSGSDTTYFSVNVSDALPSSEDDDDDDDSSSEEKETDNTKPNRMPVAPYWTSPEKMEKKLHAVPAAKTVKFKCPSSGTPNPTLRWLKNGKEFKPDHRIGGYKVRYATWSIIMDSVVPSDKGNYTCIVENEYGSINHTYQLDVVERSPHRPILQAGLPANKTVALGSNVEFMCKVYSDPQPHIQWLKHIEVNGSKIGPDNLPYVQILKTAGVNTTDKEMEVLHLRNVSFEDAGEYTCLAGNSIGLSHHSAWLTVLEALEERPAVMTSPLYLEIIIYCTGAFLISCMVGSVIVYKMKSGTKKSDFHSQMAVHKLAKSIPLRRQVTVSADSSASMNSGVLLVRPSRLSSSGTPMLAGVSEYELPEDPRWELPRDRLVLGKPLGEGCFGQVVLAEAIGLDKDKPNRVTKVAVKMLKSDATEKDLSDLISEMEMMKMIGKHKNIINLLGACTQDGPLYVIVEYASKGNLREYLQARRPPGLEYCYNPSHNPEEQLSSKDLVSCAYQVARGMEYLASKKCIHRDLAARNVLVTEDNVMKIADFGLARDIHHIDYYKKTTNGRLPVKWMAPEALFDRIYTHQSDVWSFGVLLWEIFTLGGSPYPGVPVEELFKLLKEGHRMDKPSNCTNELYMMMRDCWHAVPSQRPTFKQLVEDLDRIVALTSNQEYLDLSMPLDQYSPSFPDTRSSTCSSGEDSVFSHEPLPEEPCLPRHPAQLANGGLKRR
T1 sequence (P21802 whole entry, looked up): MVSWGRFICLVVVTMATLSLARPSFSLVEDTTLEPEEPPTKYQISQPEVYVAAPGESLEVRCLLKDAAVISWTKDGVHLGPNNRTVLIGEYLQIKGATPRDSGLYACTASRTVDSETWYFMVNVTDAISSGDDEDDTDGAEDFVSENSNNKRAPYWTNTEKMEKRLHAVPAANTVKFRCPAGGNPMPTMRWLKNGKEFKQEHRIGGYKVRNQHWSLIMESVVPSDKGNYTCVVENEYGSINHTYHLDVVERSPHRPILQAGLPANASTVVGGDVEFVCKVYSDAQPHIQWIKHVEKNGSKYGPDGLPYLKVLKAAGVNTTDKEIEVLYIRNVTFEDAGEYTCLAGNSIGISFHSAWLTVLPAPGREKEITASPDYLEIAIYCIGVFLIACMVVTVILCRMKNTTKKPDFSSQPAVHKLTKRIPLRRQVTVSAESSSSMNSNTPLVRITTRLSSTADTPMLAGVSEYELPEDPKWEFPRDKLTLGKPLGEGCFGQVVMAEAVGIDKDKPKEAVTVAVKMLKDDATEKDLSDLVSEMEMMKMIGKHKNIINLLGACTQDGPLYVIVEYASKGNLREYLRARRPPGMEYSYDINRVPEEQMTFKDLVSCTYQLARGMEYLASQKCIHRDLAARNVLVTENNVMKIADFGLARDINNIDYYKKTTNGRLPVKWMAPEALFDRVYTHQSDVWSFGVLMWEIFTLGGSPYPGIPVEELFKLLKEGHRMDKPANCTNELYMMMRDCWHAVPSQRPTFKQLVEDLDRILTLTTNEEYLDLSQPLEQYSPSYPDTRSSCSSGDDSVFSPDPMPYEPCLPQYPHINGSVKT
T1 sequence (P22455 whole entry, looked up): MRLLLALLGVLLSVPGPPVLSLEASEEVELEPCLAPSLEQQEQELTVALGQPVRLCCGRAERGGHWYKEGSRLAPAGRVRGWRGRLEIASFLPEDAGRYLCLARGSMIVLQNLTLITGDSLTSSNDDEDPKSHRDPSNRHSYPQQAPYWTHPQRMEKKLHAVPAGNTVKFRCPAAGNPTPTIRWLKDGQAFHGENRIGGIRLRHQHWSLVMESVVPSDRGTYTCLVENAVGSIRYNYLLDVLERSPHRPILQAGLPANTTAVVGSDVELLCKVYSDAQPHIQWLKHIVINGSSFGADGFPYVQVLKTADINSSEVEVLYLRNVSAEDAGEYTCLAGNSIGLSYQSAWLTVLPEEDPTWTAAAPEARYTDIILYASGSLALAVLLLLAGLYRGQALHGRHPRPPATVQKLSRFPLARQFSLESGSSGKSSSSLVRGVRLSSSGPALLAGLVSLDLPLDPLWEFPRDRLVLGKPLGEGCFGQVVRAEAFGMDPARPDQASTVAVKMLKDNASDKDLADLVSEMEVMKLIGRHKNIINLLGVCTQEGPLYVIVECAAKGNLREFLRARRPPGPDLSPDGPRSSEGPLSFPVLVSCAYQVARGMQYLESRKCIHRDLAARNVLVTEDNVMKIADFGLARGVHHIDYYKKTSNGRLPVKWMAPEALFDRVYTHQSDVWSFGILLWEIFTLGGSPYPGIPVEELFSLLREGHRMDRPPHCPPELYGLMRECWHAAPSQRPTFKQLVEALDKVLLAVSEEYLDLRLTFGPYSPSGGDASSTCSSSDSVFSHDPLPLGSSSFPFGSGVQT
T1 sequence (P22607 whole entry, looked up): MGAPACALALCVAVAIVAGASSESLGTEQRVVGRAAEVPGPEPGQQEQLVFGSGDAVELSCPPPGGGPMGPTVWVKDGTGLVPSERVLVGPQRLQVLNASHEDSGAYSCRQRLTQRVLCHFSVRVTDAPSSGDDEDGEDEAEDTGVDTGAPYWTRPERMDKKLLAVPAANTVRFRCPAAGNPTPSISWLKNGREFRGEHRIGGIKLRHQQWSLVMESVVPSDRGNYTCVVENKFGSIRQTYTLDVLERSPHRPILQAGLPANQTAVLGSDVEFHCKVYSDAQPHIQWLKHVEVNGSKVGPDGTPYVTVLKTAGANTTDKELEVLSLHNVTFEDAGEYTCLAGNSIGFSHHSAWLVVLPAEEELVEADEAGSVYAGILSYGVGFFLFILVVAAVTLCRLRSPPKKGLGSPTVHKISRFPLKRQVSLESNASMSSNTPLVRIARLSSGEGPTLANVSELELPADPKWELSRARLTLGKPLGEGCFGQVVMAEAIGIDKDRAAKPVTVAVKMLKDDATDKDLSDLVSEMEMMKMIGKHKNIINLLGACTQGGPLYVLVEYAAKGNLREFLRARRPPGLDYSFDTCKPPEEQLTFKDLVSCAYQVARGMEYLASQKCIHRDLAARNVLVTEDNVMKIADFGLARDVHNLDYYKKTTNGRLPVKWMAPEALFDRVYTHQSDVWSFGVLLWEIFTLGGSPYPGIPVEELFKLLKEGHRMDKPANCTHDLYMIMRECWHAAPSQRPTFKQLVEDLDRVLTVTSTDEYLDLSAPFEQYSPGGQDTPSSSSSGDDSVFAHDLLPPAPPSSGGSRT

IC50 [1] [µM]	inhibition [2] [%]	IC50 [3] [µM]	inhibition [4] [%]	inhibition [5] [%]	Structure (SMILES)
10	19	8.3	–	–	COC(=O)C1=C(c2ccccc2)c2cc([N+](=O)[O-])ccc2C1=O.COC(=O)C1=C(c2ccccc2)c2ccc([N+](=O)[O-])cc2C1=O
44	11	–	38	–	COC(=O)C1=C(c2ccccc2)c2cccc(C)c2C1=O
4.7	25	3.6	–	–	NC(=O)C1=C(c2ccccc2)c2ccccc2C1=O
–	16	–	8	23	NC(=O)C1C(=O)c2ccccc2C1c1ccccc1 (configuration not stated)
6.2	25	–	10	–	COC(=O)C1=C(c2ccccc2)c2cc(Cl)ccc2C1=O.COC(=O)C1=C(c2ccccc2)c2ccc(Cl)cc2C1=O
5.4	27	9.6	–	–	NC(=O)C1=C(c2ccc(Cl)cc2)c2ccccc2C1=O
9.2	8.7	–	53	–	CCC1=C(C(N)=O)C(=O)c2ccccc21
21	24	–	16	–	CNC(=O)C1=C(c2ccccc2)c2ccccc2C1=O
–	10	–	27	29	NC(=O)C1=C(c2ccccc2)c2ccccc2C1O (configuration not stated)
15	19	13	–	–	COC(=O)C1=C(c2ccccc2)c2c(OC)cccc2C1=O
4.2	25	–	48	–	NC(=O)C1=C2CCCc3cccc(c32)C1=O
25	9	–	7	–	O=C(O)C1=C(c2ccccc2)c2ccccc2C1=O
–	8	–	11	21	CCN(CC)CCNC(=O)C1=C(c2ccccc2)c2ccccc2C1=O
10.6	23	4	–	–	COc1ccc(C2=C(C(N)=O)C(=O)c3ccccc32)cc1
6.8	27	7.6	–	–	COC(=O)C1=C(c2ccccc2)c2ccncc2C1=O
6.4	20	33	–	–	COC(=O)C1=C(c2ccccc2)c2cc(C)ccc2C1=O.COC(=O)C1=C(c2ccccc2)c2ccc(C)cc2C1=O
–	10	–	1	10	CN(C)C(=O)C1=C(c2ccccc2)c2ccccc2C1=O
5.1	19	25	–	–	COC(=O)C1=C(c2ccccc2)c2ccccc2C1=O
–	8	–	3	26	C/C=C1\c2ccccc2C(=O)C1C(N)=O (configuration not stated)
